“Also recorded” adds a separate entry of the source. Marks after values point to notes of the source that are not given here.
Assays:
[1] = tested on: huntingtin-positive aggregates; assay: Huntingtin aggregate stereology and ubiquitin inclusions in neostriatum; type: in vivo, mouse; details: 1.2 g/kg/d i.p. from 21 days; at 90 days; vs PBS-treated R6/2
Procedure: Neuropathological Evaluation of Sodium Butyrate Treatment: Beginning at 21 days, R6/2 transgenic mice and wild-type littermate control mice were treated daily with the most optimal dose of sodium butyrate (1.2 g/kg), as determined by survival studies, or PBS intraperitoneal injections. Groups of 10 animals from each treatment paradigm were deeply anesthetized and transcardially perfused with 4% buffered paraformaldehyde at 90 days of age. Forty mice were used for neuropathological analysis, as previously described (Ferrante et al., 2002). […]
Stereology/Quantitation: Serial-cut coronal tissue-sections beginning from the most rostral segment of the neostriatum to the level of the anterior commissure (Inter aural 5.34 mm/Bregma 1.54 mm to Inter aural 3.7 mm/Bregma −0.10 mm), were used for huntingtin aggregate analysis. […] Striatal neuron areas were analyzed by microscopic videocapture using a Windows-based image analysis system for area measurement (Optimas, Bioscan Incorporated, Edmonds, Wash.). […] Cross-sectional areas were analyzed using Statview.

Drosophila model of HD = Drosophila model of HD (Steffan 2001); cited from earlier work
Body weight in R6/2 mice = type: in vivo, mouse; details: same plateau in PBS-treated mice
Procedure: (§1) Intraperitoneal Dosing: Based upon previous studies (Egorin et al., 1999), a dose response study was performed, treating groups of wild type mice (n=10) and littermate R6/2 mice (n=20) with 100, 200, 400, 600, 1,200, 5,000, and 10,000 mg/kg daily intraperitoneal injection (100 Êl) of sodium butyrate (Acros Organics/Fisher Scientific) dissolved in PBS and made fresh daily. Control groups were treated with PBS injection or untreated. Approximately 240 mice were used for behavioral and survival analyses.
(§2) Clinical Assessment: Both motor performance and body weight were measured throughout the study. Training sessions were given on days 21 and 22 to acclimate the mice to the rotarod apparatus (Columbus Instruments, Columbus, Ohio). Motor performance (constant rotation at 16 rpm) was assessed weekly from 23-63 days of age and twice weekly from 63 days of age in the sodium butyrate-treated, PBS-treated R6/2 mice, and wild type littermate control mice. Three 60 sec trials were given during each session and averaged. Body weights were recorded twice weekly at the same time of day in all groups.

[2] = tested on: MKP-1, α-globin, β-globin, preproenkephalin mRNA; assay: Real-time PCR of brain mRNAs; type: in vivo, mouse; details: Striatum, percentage of untreated R6/2, normalized to β-actin
Procedure: Real-time PCR: Reverse transcription of 1 Êg total RNA was conducted with a SuperScript™ First-Strand Synthesis System for RT-PCR (Invitrogen) using random hexamer primers per the manufacturer's instructions. Quantitative real-time PCR studies utilized a Bio-Rad iCycler to follow the amplification of cDNA products by using SYBR_ Green PCR Master Mix (Applied Biosystems) through 50 PCR cycles (95_C for 30 s, 57_C for 1 min, 72_C for 1.5 min). Specific amplification of the target sequences was determined by melt curve analysis and DNA sequencing. Primer pair sequences were as follows: Preproenkephalin (XM—131313) GTGTCCAGGCCCGAGTTC and […]; MKP-1 (NM_013642) […] and […]; _-globin (NM_008218) CCACCCTGCCGATTTCA and CCGCAGMGGCAGCTTAAC; _-globin (NM_008220) […] and CCCAGCACAATCACGATCA; _-actin (X03672) AGGTATCCTGACCCTGAAG and […]. Expression of the mRNAs of interest was calculated using the equation: V=(1+E reference)(C t reference)/(1+E target) (C t target) to correct for potential differences in RNA input and PCR primer efficiencies (Livak and Schmittgen, 2001). V=relative value of target gene normalized to reference (_-actin), E=primer efficiency, C t=threshold crossing cycle number. Differences between genotype and treatment groups were assessed using an unpaired, two-tailed Student's t-test.

[3] = tested on: R6/2 transgenic mouse model of HD; assay: Rotarod motor performance in R6/2 mice; type: in vivo; details: at 90 days, vs PBS-treated R6/2 mice
Procedure: as §1, §2
Statistics: The data are expressed as the mean+standard error of the mean. Statistical comparisons of rotarod, weight data, and histology data were compared by ANOVA or repeated measures ANOVA. Survival data was analyzed by the Kaplan-Meier survival curves.

CCCC(=O)[O-].[Na+] [sodium butyrate]
huntingtin-positive striatal aggregates or ubiquitin-positive inclusions [1]: no significant differences; also recorded: no significant reduction | photoreceptor neuron degeneration and lethality (Drosophila model of HD): slow photoreceptor neuron degeneration and ameliorate lethality | body weight plateau until death (Body weight in R6/2 mice): 19-20 gms | PCR, NaBu Txd R6/2 vs R6/2 ([2]; MKP-1 mRNA, p<0.05): 181%^a | PCR, NaBu Txd R6/2 vs R6/2 ([2]; Preproenkephalin mRNA): 101% | PCR, NaBu Txd R6/2 vs R6/2 ([2]; α-globin mRNA, p<0.01): 206%^c | PCR, NaBu Txd R6/2 vs R6/2 ([2]; β-globin mRNA, p<0.02): 215%^b | percentile increase in rotarod performance ([3]; 400 mg/kg): 24.0% | percentile increase in rotarod performance ([3]; 600 mg/kg): 27.5% | percentile increase in rotarod performance ([3]; 1,200 mg/kg): 34.9%

— patent US20060069157A1, “Method of ameliorating or abrogating the effects of a neurodegenerative disorder, such as Huntington's disease, by sodium butyrate chemotherapy” (U.S. DEPARTMENT OF VETERANS AFFAIRS, priority 2004, published 2006)
